In patent US20220016115A1, “USP19 INHIBITORS FOR USE IN THERAPY” (ALMAC DISCOVERY LIMITED, priority 2018, published 2022):

Each molecule was assayed against T1, USP19 (Homo sapiens, UniProt O94966) (assay: USP19 fluorescence polarisation (FP) homogeneous assay). Conditions: Ubiquitin-Lys-TAMRA substrate, full-length USP19 2.5 nM, average of at least two duplicate experiments.
T1 sequence (O94966 1-1318): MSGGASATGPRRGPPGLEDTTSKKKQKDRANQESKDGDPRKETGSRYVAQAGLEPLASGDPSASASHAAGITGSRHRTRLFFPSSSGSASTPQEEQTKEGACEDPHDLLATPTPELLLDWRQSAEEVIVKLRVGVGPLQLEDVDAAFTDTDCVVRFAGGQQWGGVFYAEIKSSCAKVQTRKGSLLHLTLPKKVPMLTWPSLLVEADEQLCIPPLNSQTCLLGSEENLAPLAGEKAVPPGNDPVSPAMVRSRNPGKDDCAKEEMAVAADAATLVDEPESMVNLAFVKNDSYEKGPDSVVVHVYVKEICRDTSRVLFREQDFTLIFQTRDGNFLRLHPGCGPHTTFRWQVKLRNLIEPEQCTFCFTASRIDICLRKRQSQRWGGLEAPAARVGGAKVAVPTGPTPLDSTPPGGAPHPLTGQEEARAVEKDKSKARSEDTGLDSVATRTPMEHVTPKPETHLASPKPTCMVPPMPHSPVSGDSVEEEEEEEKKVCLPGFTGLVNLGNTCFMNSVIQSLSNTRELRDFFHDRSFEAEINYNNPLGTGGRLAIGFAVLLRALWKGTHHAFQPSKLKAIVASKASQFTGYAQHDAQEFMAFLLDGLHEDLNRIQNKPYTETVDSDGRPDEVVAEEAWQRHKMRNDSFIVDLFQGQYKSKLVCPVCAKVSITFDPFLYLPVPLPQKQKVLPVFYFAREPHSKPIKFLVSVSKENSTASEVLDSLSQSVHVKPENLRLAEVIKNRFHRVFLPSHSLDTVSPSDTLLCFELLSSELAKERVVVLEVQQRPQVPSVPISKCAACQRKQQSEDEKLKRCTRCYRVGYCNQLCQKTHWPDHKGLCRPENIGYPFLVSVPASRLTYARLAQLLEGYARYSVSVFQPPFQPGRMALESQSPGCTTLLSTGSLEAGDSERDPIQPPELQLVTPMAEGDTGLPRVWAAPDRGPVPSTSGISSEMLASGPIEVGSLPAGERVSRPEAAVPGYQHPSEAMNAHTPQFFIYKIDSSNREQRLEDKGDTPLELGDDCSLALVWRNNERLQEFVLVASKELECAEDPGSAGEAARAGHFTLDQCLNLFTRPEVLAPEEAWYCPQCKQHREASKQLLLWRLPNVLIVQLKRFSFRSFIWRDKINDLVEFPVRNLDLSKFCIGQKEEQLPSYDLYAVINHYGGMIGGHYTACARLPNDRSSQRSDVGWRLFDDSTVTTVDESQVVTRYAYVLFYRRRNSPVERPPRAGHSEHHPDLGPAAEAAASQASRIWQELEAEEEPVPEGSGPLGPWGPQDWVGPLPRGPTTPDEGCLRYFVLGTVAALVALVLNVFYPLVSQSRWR
Assay type: biochemical
Set-up: Full-length USP19 was purchased from Boston Biochem (E-576); purchased Boston Biochem E-576
In short: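 Inhibitors serially diluted in buffer (200 μM to 2 μM, 8-18 points) and preincubated 30 min at RT before starting with 500 nM Ub substrate.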

| SMILES | IC50 [nM] |
| --- | --- |
| C[C@H](CC(F)(F)F)C(=O)N1CC[C@@](O)(Cn2cc(C(=O)N3CCOCC3)c(-c3ccccc3)cc2=O)C2(CCCC2)C1 [Example 250, 1-(((S)-10-Hydroxy-7-((R)-4,4,4-trifluoro-2-methylbutanoyl)-7-azaspiro[4.5]decan-10-yl)methyl)-5-(morpholine-4-carbonyl)-4-phenylpyridin-2(1H)-one] | < 500 |
| C[C@H](CC1CCCCC1)C(=O)N1CCC(O)(Cn2cc(C(=O)N(C)C)c(-c3ccccc3)cc2=O)C2(CCCCC2)C1 (stereo partly drawn) [Example 237, 1-((2-((R)-3-Cyclohexyl-2-methylpropanoyl)-5-hydroxy-2-azaspiro[5.5]undecan-5-yl)methyl)-N,N-dimethyl-6-oxo-4-phenyl-1,6-dihydropyridine-3-carboxamide] | < 500 |
| CN(C)C(=O)c1cn(C[C@]2(O)CCN(C(=O)[C@H](CO)CC(F)(F)F)CC23CCCC3)c(=O)cc1-c1ccccc1 [Example 247, 1-(((S)-10-Hydroxy-7-((S)-4,4,4-trifluoro-2-(hydroxymethyl)butanoyl)-7-azaspiro[4.5]decan-10-yl)methyl)-N,N-dimethyl-6-oxo-4-phenyl-1,6-dihydropyridine-3-carboxamide] | < 500 |
